Laboratory results reported in the NIST ThermoML archive (doi:10.1016/j.jct.2008.12.005).
Numbers after ± are expanded uncertainties.

Experiment: activity coefficient (dimensionless); of the first substance listed, at infinite dilution; xn = mol fraction of the nth substance listed
Conditions: 101 kPa, Liquid, Chromatography, x1 = 0

| Structure (SMILES) | activity coefficient (298.15 K) | activity coefficient (308.15 K) | activity coefficient (318.15 K) | activity coefficient (328.15 K) | activity coefficient (338.15 K) | activity coefficient (348.15 K) | activity coefficient (358.15 K) | activity coefficient (368.15 K) |
| --- | --- | --- | --- | --- | --- | --- | --- | --- |
| c1ccccc1 [benzene] + CC[S+](CC)CC.O=S(=O)([N-]S(=O)(=O)C(F)(F)F)C(F)(F)F | 1.08 ± 0.07 | 1.1 ± 0.07 | 1.11 ± 0.07 | 1.12 ± 0.07 | 1.13 ± 0.07 | 1.13 ± 0.07 | 1.14 ± 0.07 | 1.15 ± 0.07 |
| C1CCOC1 [tetrahydrofuran] + CC[S+](CC)CC.O=S(=O)([N-]S(=O)(=O)C(F)(F)F)C(F)(F)F | 0.788 ± 0.051 | 0.803 ± 0.052 | 0.82 ± 0.053 | 0.834 ± 0.054 | 0.846 ± 0.054 | 0.859 ± 0.055 | 0.872 ± 0.056 | 0.885 ± 0.056 |
| C=CCCCC [hex-1-ene] + CC[S+](CC)CC.O=S(=O)([N-]S(=O)(=O)C(F)(F)F)C(F)(F)F | 12.5 ± 0.9 | 11.8 ± 0.8 | 11.3 ± 0.8 | 10.6 ± 0.7 | 10.1 ± 0.7 | 9.69 ± 0.66 | 9.3 ± 0.63 | 8.94 ± 0.61 |
| CCCCCCC [heptane] + CC[S+](CC)CC.O=S(=O)([N-]S(=O)(=O)C(F)(F)F)C(F)(F)F | 40.4 ± 2.8 | 36.9 ± 2.5 | 33.5 ± 2.3 | 30.5 ± 2.1 | 28.1 ± 1.9 | 26 ± 1.8 | 24.1 ± 1.6 | 22.5 ± 1.5 |
| Cc1ccccc1 [toluene] + CC[S+](CC)CC.O=S(=O)([N-]S(=O)(=O)C(F)(F)F)C(F)(F)F | 1.54 ± 0.1 | 1.56 ± 0.1 | 1.58 ± 0.1 | 1.6 ± 0.11 | 1.62 ± 0.11 | 1.63 ± 0.11 | 1.65 ± 0.11 | 1.66 ± 0.11 |
